# Test results reported in ChEMBL document CHEMBL3870328, “Synthesis of novel Ral inhibitors: An in vitro and in vivo study” (Bioorg Med Chem Lett, 2016).
# What was measured:
# [1] = Cytotoxicity against human NCI-H2122 cells under anchorage-independent condition assessed as cell growth inhibition after 10 days by nitro blue tetrazolium-based microscopic analysis; type: functional; details: NCI-H2122, 240 h
# [2] = Drug level in CD1 mouse liver microsomes treated with 6-amino-4-(2,5-dimethoxyphenyl)-3-(naphthalen-2-yl)-1,4-dihydropyrano[2,3-c]pyrazole-5-carbonitrile at 16.7 uM assessed as CYP450-mediated compound formation in presence of NADPH by LC-MS/MS analysis; type: ADME
Structure (SMILES),IC50 [1],Drug metabolism [2]
Cn1nc(-c2ccccc2)c2c1OC(N)=C(C#N)C2c1ccc(F)cc1 (stereo not drawn),> 10 µM,
Cn1nc(-c2ccccc2)c2c1OC(N)=C(C#N)C2c1cccnc1 (stereo not drawn),> 10 µM,
N#CC1=C(N)Oc2c(c(-c3ccccc3)nn2-c2ccccc2)C1c1ccc(F)cc1 (stereo not drawn),4.1 µM,
COc1ccc(-c2nn(-c3ccccc3)c3c2C(c2ccc(F)cc2)C(C#N)=C(N)O3)cc1 (stereo not drawn),6 µM,
COc1ccc(C2C(C#N)=C(N)Oc3c2c(-c2ccccc2)nn3C)cc1F (stereo not drawn),> 10 µM,
COc1ccc(C2C(C#N)=C(N)Oc3c2c(C)nn3C)cc1F (stereo not drawn),5.8 µM,
COc1ccc(C2C(C#N)=C(N)Oc3c2c(C)nn3C)cc1 (stereo not drawn),8.6 µM,
Cn1nc(-c2ccccc2)c2c1OC(N)=C(C#N)C2c1ccccc1 (stereo not drawn),> 10 µM,
Cn1nc(-c2ccccc2)c2c1OC(N)=C(C#N)C2c1ccncc1 (stereo not drawn),5.2 µM,
Cc1nn(C)c2c1C(c1cc(F)cc(F)c1)C(C#N)=C(N)O2 (stereo not drawn),4.2 µM,
Cc1nn(C)c2c1C(c1ccc(C(C)C)cc1)C(C#N)=C(N)O2 (stereo not drawn),4 µM,
Cc1nn(-c2ccccc2)c2c1C(c1ccccc1)C(C#N)=C(N)O2 (stereo not drawn),2.7 µM,
Cc1nn(C)c2c1C(c1ccc(F)cc1)C(C#N)=C(N)O2 (stereo not drawn),> 10 µM,
Cc1nn(C)c2c1C(c1ccc3c(c1)OCCO3)C(C#N)=C(N)O2 (stereo not drawn),8.6 µM,
N#CC1=C(N)Oc2c(c(-c3ccccc3)nn2-c2ccccc2)C1c1ccccc1 (stereo not drawn),4.1 µM,
COc1ccc(-c2nn(C)c3c2C(c2ccc(OC)cc2)C(C#N)=C(N)O3)cc1 (stereo not drawn),> 10 µM,
Cn1nc(-c2ccccc2)c2c1OC(N)=C(C#N)C2c1ccc(C#N)cc1 (stereo not drawn),5.2 µM,
COc1ccc(-c2nn(C)c3c2C(c2ccccc2)C(C#N)=C(N)O3)cc1OC (stereo not drawn),> 10 µM,
Cn1nc(-c2ccccc2)c2c1OC(N)=C(C#N)C2c1cc(F)cc(F)c1 (stereo not drawn),6.6 µM,
Cc1nn(-c2ccccc2)c2c1C(c1ccc(F)cc1)C(C#N)=C(N)O2 (stereo not drawn),6.6 µM,
Cc1nn(C)c2c1C(c1cccnc1)C(C#N)=C(N)O2 (stereo not drawn),8.8 µM,
Cn1nc(-c2ccccc2)c2c1OC(N)=C(C#N)C2c1ccc(OC(F)(F)F)cc1 (stereo not drawn),5.5 µM,
N#CC1=C(N)Oc2[nH]nc(-c3ccc4ccccc4c3)c2C1c1cc(O)ccc1O (stereo not drawn),,Metabolite_Detected
